Data published in patent US20230218717A1, “Administration of CEBP-Beta Antagonist and Methods of Use” (Sapience Therapeutics, Inc., priority 2020, published 2023).
Where no end group is shown, it is not given here.

Key:
[1] = test system: HL-60 promyelocytic leukemia cells; experiment: Cytotoxicity in HL-60 cells
Source text: (§1) We hypothesized that modifications designed to enhance electrostatic interactions between the peptide and C/EBPβ would increase potency. A panel of 46 rationally-designed peptides probing the molecular packing of non-leucine amino acids of the peptide antagonist with that of the C/EBPβ bZIP domain were synthesized and screened for cytotoxic activity.

[2] = Cytotoxicity in HL-60 cells
Source text: as §1

[3] = molecular target: C/EBPβ (plate-bound, competitive ELISA); experiment: ELISA: 3.6 ng plate-bound C/EBPβ, ATF5 in solution
Chain of C/EBPβ (plate-bound, competitive ELISA) (P17676 whole entry): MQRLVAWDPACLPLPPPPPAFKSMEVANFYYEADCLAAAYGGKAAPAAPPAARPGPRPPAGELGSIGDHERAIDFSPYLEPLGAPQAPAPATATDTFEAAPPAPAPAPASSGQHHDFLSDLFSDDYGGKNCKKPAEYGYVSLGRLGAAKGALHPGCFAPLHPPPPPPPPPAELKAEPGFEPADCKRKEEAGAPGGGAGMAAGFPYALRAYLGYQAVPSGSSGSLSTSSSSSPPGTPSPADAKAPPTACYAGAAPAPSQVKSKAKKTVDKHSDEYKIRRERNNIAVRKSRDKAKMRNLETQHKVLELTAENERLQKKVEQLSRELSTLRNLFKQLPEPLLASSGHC

[4] = molecular target: C/EBPβ (Homo sapiens, UniProt P17676); experiment: ELISA, ATF5 binding to plate-bound C/EBPβ; conditions: 3.6 ng C/EBPβ plate-bound
Chain of C/EBPβ (P17676 whole entry, species assumed): as the sequence (P17676 whole entry) above
Protocol: C/EBPβ (3.6 ng/well) was immobilized to a 384-well plate (Nunc MaxiSorp, ThermoSci) by overnight incubation at 4° C. Non-bound protein was removed by three washes with tris-buffered saline (TBS)+0.1% Tween (TBST), and wells were then blocked for 1 hr at 4° C. with 5% bovine serum albumin in TBS.
Plate-bound ATF5 was detected by 1-hr incubations at 4° C. of 1:1000 dilution rabbit-anti-ATF5 antibody (ab60126, Abcam) followed by 1:1000 goat-anti-rabbit IgG-HRP antibody (ab6721, Abcam), with three washes with TBST after each antibody incubation, and 50 μL TMB substrate. The reaction was stopped by addition of 25 μL 2.5M sulfuric acid, and absorbance was detected at 450 nm using a SpectraMax M3 plate reader (Molecular Devices).

With “22-amino acid section of native ATF5 bZIP domain, LEGECQGLEARNRELKERAESV, and a 16-amino acid penetratin domain [precursor peptide]” the EC50 [1] was 17.4 ± 0.5 µM.

In the case of “RQIKIWFQNRRMKWKKLEGRAQGLRAELRELEERAEAV [“winner” peptide]”, the EC50 [2] is reported as 5.5 ± 0.5 µM and the “increase in potency vs. the parent peptide” value ([1]; HL-60 cytotoxicity EC50) is reported as 3.2 fold.

For recombinant ATF5, the Kd [3] was 0.001 µM.

B1: ATF5: recombinant ATF5, activating transcription factor 5, binding partner of C/EBPβ (protein)
chain: MSLLATLGLELDRALLPASGLGWLVDYGKLPPAPAPLAPYEVLGGALEGGLPVGGEPLAGDGFSDWMTERVDFTALLPLEPPLPPGTLPQPSPTPPDLEAMASLLKKELEQMEDFFLDAPPLPPPSPPPLPPPPLPPAPSLPLSLPSFDLPQPPVLDTLDLLAIYCRNEAGQEEVGMPPLPPPQQPPPPSPPQPSRLAPYPHPATTRGDRKQKKRDQNKSAALRYRQRKRAEGEALEGECQGLEARNRELKERAESVEREIQYVKDLLIEVYKARSQRTRSC
In the case of B1, the “Kd of ATF5 association with C/EBPβ” value [4] is reported as 0.001 µM.
